This note sets out measurements from patent publication US8927717B1, “Thiochromeno[2,3-c]quinolin-12-one derivatives, preparation method and application thereof” (National Defense Medical Center, priority 2014, dated 2015).

Structures are written as SMILES.

Broadly, the melting point is the temperature, or range, at which the solid turns liquid.

In series [1] the test system is SF-268. It counts as cell-based. Particulars: 10^−5 molar; for Growth percent: SF-268; for Growth percent SF-268: CNS cancer, 48 hours, SRB.
In series [2] the test system is UACC-62. In kind it is cell-based. Particulars: 10^−5 molar; for Growth percent: UACC-62; for Growth percent UACC-62: Melanoma, 48 hours, SRB.
Series [3] relates to MDA-MB-486. It counts as cell-based. Particulars: 10^−5 molar; for Growth percent: MDA-MB-486; for Growth percent MDA-MB-486: Breast cancer, 48 hours, SRB.
For series [4], the system named is UO-31. In kind it is cell-based. Particulars: 10^−5 molar; for Growth percent: UO-31; for Growth percent UO-31: Renal cancer, 48 hours, SRB.
Series [5] has as its system MALME-3M. In kind it is cell-based. The settings on record: 10^−5 molar; for Growth percent: MALME-3M; for Growth percent MALME-3M: Melanoma, 48 hours, SRB.
The subject of series [6] is 786-0. It counts as cell-based. The settings on record: 10^−5 molar; for Growth percent: 786-0; for Growth percent 786-0: Renal cancer, 48 hours, SRB.
The test system of series [7] is SF-539. It counts as cell-based. The settings on record: 10^−5 molar; for Growth percent: SF-539.
Series [8] relates to OVCAR-3. In kind it is cell-based. The settings on record: 10^−5 molar; for Growth percent OVCAR-3: Ovarian cancer, 48 hours, SRB.
Series [9] deals with MDA-MB-435. It counts as cell-based. Particulars: 10^−5 molar; for Growth percent: MDA-MB-435; for Growth percent MDA-MB-435: Melanoma, 48 hours, SRB.
Series [10] has as its system A549/ATCC. It counts as cell-based. Particulars: 10^−5 molar; for Growth percent: A549/ATCC; for Growth percent A549/ATCC: Non-small cell lung cancer, 48 hours, SRB.
The subject of series [11] is MOLT-4. In kind it is cell-based. Particulars: 10^−5 molar; for Growth percent: MOLT-4; for Growth percent MOLT-4: Leukemia, 48 hours, SRB.
For series [12], the system named is HOP-92. It counts as cell-based. Particulars: 10^−5 molar; for Growth percent: HOP-92.
Series [13] has as its system HCC-2998. In kind it is cell-based. The settings on record: 10^−5 molar; for Growth percent: HCC-2998; for Growth percent HCC-2998: Colon cancer, 48 hours, SRB.
For series [14], the system named is SK-MEL-2. It counts as cell-based. The settings on record: 10^−5 molar; for Growth percent: SK-Mel-2.
Series [15] deals with ACHN. In kind it is cell-based. Particulars: 10^−5 molar; for Growth percent: ACHN; for Growth percent ACHN: Renal cancer, 48 hours, SRB.
In series [16] the test system is NCI-H23. It counts as cell-based. The settings on record: 10^−5 molar; for Growth percent: NCI-H23; for Growth percent NCI-H23: Non-small cell lung cancer, 48 hours, SRB.
Series [17] concerns UACC-257. In kind it is cell-based. The settings on record: 10^−5 molar; for Growth percent: UACC-257; for Growth percent UACC-257: Melanoma, 48 hours, SRB.
Series [18] concerns IGROV1. It counts as cell-based. Particulars: 10^−5 molar; for Growth percent: IGROV1; for Growth percent IGROV1: Ovarian cancer, 48 hours, SRB.
Series [19] concerns CAKI-1. It counts as cell-based. Particulars: 10^−5 molar; for Growth percent CAKI-1: Renal cancer, 48 hours, SRB; for Growth percent: CAKI-1.
Series [20] deals with OVCAR-4. It counts as cell-based. Particulars: 10^−5 molar; for Growth percent OVCAR-4: Ovarian cancer, 48 hours, SRB; for Growth percent: OVCAR-4.

With `O=c1c2cc(Cl)ccc2sc2c(NCCN3CCOCC3)nc3ccccc3c12` [Compound N16, 10-Chloro-6-((2-morpholinoethyl)amino)-12H-thiochromeno[2,3-c]quinolin-12-one], the melting point was 189 to 190 °C. Besides, the Growth percent in series [1] was determined as 79.49%. The Growth percent in series [2] was determined as 94.58%. For the same molecule, the Growth percent in [3] is given as 74.34%. For the same molecule, the Growth percent in [4] is 54.16%. Also, in series [5], the Growth percent was found to be 78.79%. The Growth percent in series [6] came to 83.16%. In addition, in series [7], the Growth percent came to 76.72%. The same molecule yielded a Growth percent in [8] (OVCAR-3) of 97.14%. In series [9], this molecule registered a Growth percent of 98.93%. Besides, the Growth percent in series [10] worked out at 95.12%. Besides, the Growth percent in [11] is on record as 80.91%. The Growth percent in series [12] is reported as 58.79%. In addition, in series [13], the Growth percent is on record as 90.51%. The same molecule showed a Growth percent in series [14] of 94.52%. Besides, the Growth percent in series [15] was found to be 91.61%. The Growth percent in [16] amounted to 83.07%. In addition, the Growth percent in series [17] stood at 106.52%. The same molecule displayed a Growth percent in series [18] of 74.11%.

On to `O=c1c2cc(Cl)ccc2sc2c(NCCO)nc3ccccc3c12` [Compound N9, 10-Chloro-6-(2-ethanolamino)-12H-thiochromeno[2,3-c]quinolin-12-one], for which the “Growth percent SF-268” value in series [1] amounted to 95.06%. In series [2], the “Growth percent UACC-62” value was 76.52%. Moreover, the “Growth percent MDA-MB-486” value in series [3] is 39.59%. Also, the “Growth percent UO-31” value in series [4] worked out at 51.97%. Besides, the “Growth percent CAKI-1” value in series [19] stood at 89.29%. Also, the “Growth percent MALME-3M” value in series [5] was 104.86%. The “Growth percent 786-0” value in series [6] is 104.43%. Also, the “Growth percent SF-539” value in series [7] (CNS cancer, 48 hours, SRB) is reported as 90.56%. In addition, the “Growth percent OVCAR-3” value in [8] came out at 103.35%. Moreover, in series [9], the “Growth percent MDA-MB-435” value came out at 94.98%. Moreover, in series [10], the “Growth percent A549/ATCC” value is given as 80.72%. In [11], the “Growth percent MOLT-4” value was found to be 78.76%. Further, in series [12] (Non-small cell lung cancer, 48 hours, SRB), the “Growth percent HOP-92” value is reported as 63.17%. Moreover, in [13], the “Growth percent HCC-2998” value came out at 101.55%. Also, the “Growth percent SK-MEL-2” value in series [14] (Melanoma, 48 hours, SRB) is recorded as 86.80%. Further, in series [20], the “Growth percent OVCAR-4” value is 102.67%. The “Growth percent ACHN” value in series [15] came out at 82.25%. Also, the “Growth percent NCI-H23” value in series [16] amounted to 86.06%. Moreover, the “Growth percent UACC-257” value in series [17] came to 89.33%. The “Growth percent IGROV1” value in [18] is 88.51%.

For the molecule `O=c1c2cc(Cl)ccc2sc2c(NCCc3ccccc3)nc3ccccc3c12` [Compound N30, 10-Chloro-6-(phenethylamino)-12H-thiochromeno[2,3-c]quinolin-12-one], the melting point fell in the range of 151 to 152 °C. The molecule also returned a Growth percent in series [1] of 101.32%. The same molecule gave a Growth percent in series [2] of 74.67%. The same molecule came in with a Growth percent in [3] of 63.11%. This molecule also displayed a Growth percent in series [4] of 75.82%. In series [19], this molecule yielded a Growth percent of 81.04%. Further, in series [5], the Growth percent is 122.61%. The same molecule yielded a Growth percent in series [6] of 108.00%. The Growth percent in [7] is 97.86%. The Growth percent in series [9] is listed as 106.06%. The Growth percent in [10] is 88.44%. Moreover, in [11], the Growth percent came to 87.33%. In [12], this molecule returned a Growth percent of 73.02%. In [13], this molecule had a Growth percent of 113.77%. In [14], this molecule returned a Growth percent of 106.33%. The Growth percent in series [20] was determined as 79.53%. The molecule further displayed a Growth percent in series [15] of 90.85%. In series [16], this molecule showed a Growth percent of 89.89%. This molecule returned a Growth percent in series [17] of 109.29%.

In the case of `CC(C)CC(C)Nc1nc2ccccc2c2c(=O)c3cc(Cl)ccc3sc12` (stereo not drawn) [Compound N13, 10-Chloro-6-((4-methylpentan-2-yl)amino)-12H-thiochromeno[2,3-c]quinolin-12-one], the melting point lay within 176 to 177 °C. Moreover, the “Growth percent SF-268” value in series [1] is recorded as 105.52%. In [2], the “Growth percent UACC-62” value is 96.09%. Also, in [3], the “Growth percent MDA-MB-486” value was determined as 96.02%. For the same molecule, the “Growth percent UO-31” value in series [4] turned out to be 78.64%. In addition, the “Growth percent CAKI-1” value in [19] came to 86.38%. Further, in [5], the “Growth percent MALME-3M” value is listed as 95.93%. Moreover, the “Growth percent 786-0” value in series [6] was 99.74%. For the same molecule, the “Growth percent OVCAR-3” value in series [8] came to 115.22%. Moreover, the “Growth percent MDA-MB-435” value in series [9] is 108.08%. Moreover, the “Growth percent A549/ATCC” value in [10] stood at 101.98%. The “Growth percent MOLT-4” value in series [11] is recorded as 93.68%. For the same molecule, the “Growth percent HCC-2998” value in series [13] was found to be 112.26%. Moreover, the “Growth percent OVCAR-4” value in series [20] turned out to be 86.07%. The “Growth percent ACHN” value in [15] is 91.24%. Besides, in series [16], the “Growth percent NCI-H23” value stood at 95.10%. For the same molecule, in series [17], the “Growth percent UACC-257” value was 114.40%. The “Growth percent IGROV1” value in series [18] turned out to be 74.77%.

For `O=c1c2cc(Cl)ccc2sc2c(NCc3ccc4c(c3)OCO4)nc3ccccc3c12` [Compound N27, 6-((Benzo[d][1,3]dioxol-5-ylmethyl)amino)-10-chloro-12H-thiochromeno[2,3-c]quinolin-12-one], the melting point fell in the range of 205 to 206 °C. Also, the Growth percent in [1] is 93.24%. In series [2], this molecule returned a Growth percent of 72.96%. In series [3], this molecule yielded a Growth percent of 60.47%. In series [4], this molecule returned a Growth percent of 80.98%. In [19], the Growth percent is given as 75.09%. Also, the Growth percent in series [5] is 81.64%. Further, the Growth percent in series [6] amounted to 95.83%. For the same molecule, the Growth percent in series [7] turned out to be 77.12%. This molecule also showed a Growth percent in series [9] of 91.64%. In series [10], this molecule yielded a Growth percent of 104.74%. In addition, the Growth percent in [11] is 87.55%. The same molecule gave a Growth percent in [12] of 45.39%. Further, the Growth percent in [14] is reported as 95.57%. Besides, the Growth percent in series [20] was determined as 53.73%. The same molecule showed a Growth percent in series [15] of 58.48%. This molecule gave a Growth percent in [16] of 79.93%. In addition, the Growth percent in series [18] came to 67.81%.

The molecule `COc1ccc(CCNc2nc3ccccc3c3c(=O)c4cc(Cl)ccc4sc23)cc1` [Compound N31, 10-Chloro-6-((4-methoxyphenethyl)amino)-12H-thiochromeno[2,3-c]quinolin-12-one] displayed a melting point of 214 to 215 °C. The same molecule registered a Growth percent in series [1] of 100.14%. In series [2], this molecule showed a Growth percent of 80.17%. The Growth percent in series [3] stood at 53.93%. In series [4], this molecule registered a Growth percent of 72.12%. Further, in series [19], the Growth percent was determined as 85.75%. The molecule further returned a Growth percent in series [5] of 99.74%. This molecule gave a Growth percent in series [6] of 100.71%. In series [7], this molecule yielded a Growth percent of 95.67%. In series [9], this molecule gave a Growth percent of 104.49%. Besides, the Growth percent in series [10] is on record as 93.49%. Moreover, in series [11], the Growth percent was 82.02%. For the same molecule, the Growth percent in series [12] was 67.57%. This molecule showed a Growth percent in series [13] of 105.27%. The Growth percent in [14] was found to be 113.12%. The molecule also yielded a Growth percent in series [20] of 79.00%. The molecule also had a Growth percent in series [15] of 91.19%. For the same molecule, in [16], the Growth percent was 92.72%. In series [17], this molecule yielded a Growth percent of 98.66%. Further, the Growth percent in series [18] turned out to be 86.73%.
